In ChEMBL document CHEMBL4811317, “Inhibitory activities of anthraquinone and xanthone derivatives against transthyretin amyloidogenesis” (Bioorg Med Chem, 2021):

What follows are molecules tested against Transthyretin (Homo sapiens, UniProt P02766, V50M) (assay: Inhibition of acid-mediated aggregation of TTR V30M mutant (unknown origin) expressed in Escherichia coli pretreated for 30 mins at pH 7 followed by protein dilution in acetate buffer and further incubated for 96 hrs at pH 4.6 by thioflavin-T fluorescence assay).

Compared with COc1cccc2c1C(=O)c1c(O)c3c(c(O)c1C2=O)C[C@@](O)(C(C)=O)C[C@@H]3O[C@H]1C[C@H](N)[C@H](O)[C@H](C)O1 [DAUNORUBICIN], CC(=O)Oc1cccc2c1C(=O)c1ccc(C(=O)O)cc1C2=O is lower in IC50: greater than 100 µM for the first, 10 µM for the second.

Compared with O=C(O)c1cc(F)c2c(c1)C(=O)c1ccccc1C2=O, O=C(O)c1cc(Cl)c2c(c1)C(=O)c1ccccc1C2=O is 2-fold lower in IC50: 24 µM for the first, 12 µM for the second.

Going from O=C(O)c1ccc2c(c1)C(=O)c1ccccc1C2=O to O=C(O)c1ccc2c(c1)C(=O)c1cccc(O)c1C2=O, the IC50 rises from 28 µM to 50 µM (1.8-fold). The first is the more potent here.

O=C1c2cccc(O)c2C(=O)c2c(O)cc(CO)cc21 [ALOE-EMODIN] and O=C1c2cccc(O)c2C(=O)c2c(O)cccc21 [DANTHRON] cannot be ordered by IC50: greater than 100 µM for the first, greater than 100 µM for the second.

Going from CC(C)=CCc1c(O)cc2oc3cc(O)c(O)c(CC=C(C)C)c3c(=O)c2c1O to Cc1cc(O)c2c(c1)C(=O)c1cc(O)cc(O)c1C2=O [EMODIN], the IC50 rises from 10 µM to greater than 100 µM. The first is the more potent here.

First: O=C(O)c1ccc2c(=O)c3ccc(Cl)cc3oc2c1
Second: O=C(O)c1ccc2oc3cc(Cl)ccc3c(=O)c2c1
The IC50 of the first is lower: 13 µM for the first, greater than 100 µM for the second. The first is the more potent here.

O=C(O)c1ccc2oc3ccc(Cl)cc3c(=O)c2c1 and O=C(O)c1ccc2oc3c(Cl)cccc3c(=O)c2c1 are within 1.5-fold of each other in IC50: 12 µM for the first, 13 µM for the second.

Going from COc1cc(O)c2c(c1)C(=O)c1cc(C)cc(O)c1C2=O [PHYSCION] to Cc1cc(C(=O)O)c2c(c1)C(=O)c1ccccc1C2=O, the IC50 falls from greater than 100 µM to 45 µM. The second is the more potent here.

Oc1ccc(O)c2c(O)c3ccccc3c(O)c12 and O=C1c2ccccc2C(=O)c2c1ccc(O)c2O [ATHRAQUINONES A] cannot be ordered by IC50: greater than 100 µM for the first, greater than 100 µM for the second.

Compared with Cc1ccc2oc3ccccc3c(=O)c2c1, Cc1cc(C(=O)O)cc2c1C(=O)c1ccccc1C2=O is lower in IC50: greater than 100 µM for the first, 13 µM for the second. The second is the more potent here.

Compared with O=C1c2ccc(O)cc2C(=O)c2c1ccc(O)c2O, CCOc1cccc2c1C(=O)c1ccc(C(=O)O)cc1C2=O is 1.8-fold higher in IC50: 12 µM for the first, 22 µM for the second.
